Data as given in patent US12457954B2, “Sorghum plants having a mutant polynucleotide encoding the large subunit of mutated acetohydroxyacid synthase protein and increased resistance to herbicides” (Advanta Holdings BV, priority 2012, dated 2025).

What was measured:
Assay type in all cases: in vivo, Sorghum bicolor
[1] = test system: ADV-IMI-R mutant Sorghum line; assay: Field spraying with imidazolinone herbicides, dry matter of aerial tissues, resistant mutant; conditions: for DM % Control: ADV-IMI-R, 10 days after spraying, mean of 3 experiments; for Response of ADV-IMI-R mutant to herbicide: field spraying, even at a rate of 4×
Procedure: (§1) Subsequently, the effect to herbicide spraying on mutant imidazolinone-resistant plants ADV-IMI-R (original mutation) was compared to the response of endogamic Sorghum line 80237 (Advanta proprietary elite line). To that end, plants were treated on the field with three herbicides belonging to the imidazolinone family: imazethapyr, imazapir, and imazapic. Four different rates were assayed: 1×, 2×, 3×, and 4× for each of the herbicides.
(§2) Ten days after spraying, all plants were assayed for dry matter (DM) in aerial tissues.
(§3) The response of the ADV-IMI-R mutant of the invention was compared to that of endogamic line 80237. […] The disclosed values are the average of three experiments.
(§4) Sorghum line 80237 (Advanta's proprietary elite line) and imidazolinone-resistant ADV-IMI-R mutant of the present invention (original mutation) were sprayed on the field with three herbicides from the group of imidazolinones: imazethapyr, imazapyr, and imazapic. Four different rates were assayed for each of the herbicides: 1×, 2×, 3×, and 4× (being 1× the recommended application rate) (see Table 1 above):
(§5) Field experiments were carried out in Venado Tuerto, and planting took place on Dec. 1, 2010. The herbicide was sprayed 20 days after emergence (stage V6). All treatments were compared to their respective untreated controls. The experimental design consisted of plots divided into 3 replicates (main plot: treatment with herbicide; sub-plots: line).
(§6) Ten days after spraying, all plants were assayed for dry matter (DM) in aerial tissues. Herbicide response was assessed as a DM percentage in aerial tissue of the respective untreated control.
(§7) Thus, the line sensitive to herbicides i for each rate j was expressed as:
(§8) [formula] • DMij % Control is the mean value of 3 experiments for each treatment from each line.

[2] = test system: endogamic Sorghum line 80237; assay: Field spraying with imidazolinone herbicides, dry matter of aerial tissues, wild-type line; conditions: 10 days after spraying, mean of 3 experiments
Procedure: as §1, §2, §3, §4, §5, §6, §7, §8

[3] = test system: ADV-IMI-R × 90523 F2 progeny; assay: Phenotypic rating of segregating F2 population after spraying with imazethapyr; conditions: rate 3X
Procedure: Inheritance of resistance to imidazolinones, for example imazethapyr, was assessed in a segregating F2 Sorghum population generated by crossing an imazethapyr susceptible line with the ADV-IMI-R mutant. The F2 plants thus obtained were sprayed with imazethapyr (Pivot®, BASF) at a rate of 3×, 20 days in stage V6 after emergence and phenotypic symptoms were assessed 10 days after treatment.
The correlation between resistance phenotypes and the number of mutant alleles was analyzed using the SNP-SbAHAS marker. To that end, chlorosis and death phenotypes of individual plants from the F2 progeny (ADV-IMI-R×90523) were studied after spraying with imazethapyr. Concomitantly, the genotype of the SNP-SbAHAS marker was studied. The correlation between the molecular marker SNP-SbAHAS and resistance to imazethapyr (measured as a rating of phenotypes) was determined using the Chi-square Independence test.
A targeted crossing was carried out between Sorghum line 90523 (Advanta proprietary elite line, susceptible to imidazolinones) and the imidazolinone-resistant ADV-IMI-R mutant (VT09-9754-48-6-BK selection). The resulting F1 plants were auto-pollinated and F2 seeds were harvested. The F2 seeds were planted in the field in Venado Tuerto, in October 2010. The F2 plants (177 plants) were sprayed with imazethapyr (Pivot®, BASF) at a rate of 3× (where 1× is the rate recommended by the manufacturer for commercial use which is equivalent to 100 ml a.i./ha). Before spraying, leaf tissue from each of the 177 F2 plants from both ADV-IMI-R mutant (VT09-9754-48-6-BK selection) and wild-type line 90523 were collected to isolate genomic DNA, which was resuspended in water at a final concentration of 100 ng/μl for use in genotypic analysis.
Herbicide was sprayed 20 days after emergence (stage V6). The plants were assessed ten days after spraying, and the herbicidal effect was classified into three categories by visually assessed symptoms according to the following phenotypic scoring: • 1=no damage • 2=chlorotic • 3=death
Individual F2 progeny plants obtained by a ADV-IMI-R×90523 crossing were phenotypically classified (no damage, chlorosis and death) after spraying with imazethapyr (using the method of Example 4) and then genotypically classified using the molecular marker SNP-SbAHAS which is specific of the induced mutation in AHAS (using the method described in Example 5).

[4] = 10 days after treatment, 177 F2 plants

Structure (SMILES) | DM % Control ([1]; rate 1X) [%] | DM % Control ([1]; rate 2X) [%] | DM % Control ([1]; rate 3X) [%] | DM % Control ([1]; rate 4X) [%] | Response of ADV-IMI-R mutant to herbicide [1] | DM % Control ([2]; rate 1X) [%] | DM % Control ([2]; rate 2X) [%] | DM % Control ([2]; rate 3X) [%] | DM % Control ([2]; rate 4X) [%] | Amount of F2 progeny, phenotype Chlorotic (rating 2) [3, 4] | Amount of F2 progeny, phenotype Death (rating 3) [3, 4] | Amount of F2 progeny, phenotype No damage (rating 1) [3, 4] | Amount of F2 individuals, genotype A/G, phenotype Chlorotic ([3]; heterozygous) | Amount of F2 individuals, genotype A/G, phenotype No damage ([3]; heterozygous) | Amount of F2 individuals, genotype A/A, phenotype Chlorotic ([3]; homozygous AHAS mutant) | Amount of F2 individuals, genotype A/A, phenotype No damage ([3]; homozygous AHAS mutant) | Amount of F2 individuals, genotype G/G, phenotype Death ([3]; wild-type homozygous)
CC(C)C1(C)N=C(c2ncccc2C(=O)O)NC1=O (centres unmarked) [Imazapyr] | 139 | 140 | 235 | 191 | resistant | 14 | 21 | 14 | 19 |  |  |  |  |  |  |  | 
CCc1cnc(C2=NC(C)(C(C)C)C(=O)N2)c(C(=O)O)c1 (centres unmarked) [Imazethapyr] | 162 | 175 | 263 | 273 | resistant | 17 | 12 | 14 | 23 | 84 | 43 | 50 | 83 | 13 | 1 | 37 | 43
Cc1cnc(C2=NC(=O)C(C)(C(C)C)N2)c(C(=O)O)c1 (centres unmarked) [Imazapic] | 161 | 123 | 244 | 272 | resistant | 22 | 13 | 15 | 28 |  |  |  |  |  |  |  | 
